The values that follow are results of earlier work, collected in patent US8197801B2, “Use of compounds for the preservation of the human or animal body and compositions comprising same” (Arkema France, priority 2006, dated 2012).

For the data set the following is noted: general statement.
As to `CCCCOCOCCCC` [butylal, C4H9—(OCH2)—OC4H9], the “Toxicity relative to methanol and formaldehyde” value was “much less toxic than methanol and formaldehyde”.

As to `CCOCOCC` [ethylal, C2H5—(OCH2)—OC2H5], the “Toxicity relative to methanol and formaldehyde” value is “much less toxic than methanol and formaldehyde”. Regarding `COCOC` [methylal, CH3—(OCH2)—OCH3], the “Toxicity relative to methanol and formaldehyde” value was “much less toxic than methanol and formaldehyde”.
